According to patent US20170208799A1, “SYNERGISTIC ANTIMICROBIAL COMPOSITION” (Dow Global Technologies LLC, priority 2014, published 2017):

What was measured:
Type in all cases: cell-based
[1] = test system: Desulfuvibrio longus (D. longus); experiment: Synergy test in 96 well microtiter plate against anaerobic sulfate reducing bacteria; conditions: end point, 32° C.; for Aqucar TN-50 (ppm THNM) - QA: THNM alone
Experimental: The synergism of the biocides combination of the present invention was determined using the method described by Kull, F. C, et al. in Applied Microbiology 9:538-541 (1961). […] If end point could not be established, the highest concentration of biocide tested will be used as the end point for the calculation and the SI will be recorded in “less than or <” values. […] The type of microorganisms used for the test inoculums, the matrix to support optimum microbial growth during the test period and the medium used to enumerate the microorganisms after specified contact time are summarized in Table 2. SNF (per liter of deionized water): NaCl, 3.12 gm; NaHCO3 0.131 gm; Na2SO4 0.17 gm; 1% KCl Solution (in water) 4.77 g; 1% CaCl2 Solution (in water) 7.2 gm; 1% MgSO4 Solution (in water) 5.45 gm; 1% Na2CO3 Solution (in water) 4.39 gm. Adjust the pH to 7 before use. Modified Baar's medium (MB): MgSO4, 2 g/l; sodium citrate, 5 g/l; CaSO4, 1 g/l; NH4Cl, g/l; K2HPO4, 0.5 g/l; sodium lactate, 3.5 g/l; yeast extract, 1 g/l; Sodium thioglycolate 0. g/l. Fe(NH4)2(SO4)2 1 g/l, deionized water. Adjust the pH to 7.5 before sodium thioglycolate is added. [table] Synergy tests of THNM alone and in combination with a second biocide against the different test microorganisms were conducted using standard 96 well microtiter plate assays. The test was carried out by adding 500 uL of matrix, 50 μl of tested organism and 50 μl of each biocide into wells of the microtiter plate. The final biocides and test inoculum concentrations in each well were established based on this total volume. For each experiment, the final concentration of the test organisms was in the range of 10^6 to 10^7 cfu/ml. The highest concentration of THNM and second biocide used in this synergy study was 250 and 100 or 50 ppm (depending on the efficacy of the active), respectively. Eight 2-fold dilutions of each biocide were prepared using an automated liquid handling system. The first biocide was added into the well plate horizontally and the second biocide is added after rotating the plate 90 degrees. Columns nine and ten were reserved for each individual biocide to be tested at each concentration level to achieve at least 4-log bacterial kill or 2-log bacterial count (defined as end point) for synergy index calculation. In case the end point was not achieved, the highest biocide concentration tested was used for synergy index calculation. Wells in Column 11 were used as positive controls; they contained only the media and the test organism. The plates were incubated at 25° C. for aerobic bacteria and 32° C. for anaerobic bacteria. Enumeration was performed 24 hours contact time by employing the MPN method. Numbers of surviving bacteria were determined by removing 20 uL of the cell suspension from each well and adding it into 180 ul of enumeration media (i.e., resazurin TSB plates) then serially dilute in a 96-well block. Plates were incubated for 48 hours or until growth is observed in the control wells.

[2] = test system: Field isolate, Acid Producing bacteria (APB); experiment: Synergy test in 96 well microtiter plate against anaerobic acid producing bacteria; conditions: end point, Environmental isolate APB, 24 hours, 32° C.; for Aqucar TN-50 (ppm THNM) - QA: THNM alone
Experimental: The synergism of the biocides combination of the present invention was determined using the method described by Kull, F. C, et al. in Applied Microbiology 9:538-541 (1961). […] If end point could not be established, the highest concentration of biocide tested will be used as the end point for the calculation and the SI will be recorded in “less than or <” values. […] The type of microorganisms used for the test inoculums, the matrix to support optimum microbial growth during the test period and the medium used to enumerate the microorganisms after specified contact time are summarized in Table 2. Mineral salts medium (MSM No Nutrients). The medium contains (in mg/l) the following components: FeCl3.6H2O (1); CaCl2.2H2O (10); MgSO4.7H2O (22.5); (NH4)2SO4 (40); KH2PO4 (10); and K2HPO4 (25.5). After all components are added to deionized water, the pH of the medium is adjusted to 7.5 before use. [table] Synergy tests of THNM alone and in combination with a second biocide against the different test microorganisms were conducted using standard 96 well microtiter plate assays. The test was carried out by adding 500 uL of matrix, 50 μl of tested organism and 50 μl of each biocide into wells of the microtiter plate. The final biocides and test inoculum concentrations in each well were established based on this total volume. For each experiment, the final concentration of the test organisms was in the range of 10^6 to 10^7 cfu/ml. The highest concentration of THNM and second biocide used in this synergy study was 250 and 100 or 50 ppm (depending on the efficacy of the active), respectively. Eight 2-fold dilutions of each biocide were prepared using an automated liquid handling system. The first biocide was added into the well plate horizontally and the second biocide is added after rotating the plate 90 degrees. Columns nine and ten were reserved for each individual biocide to be tested at each concentration level to achieve at least 4-log bacterial kill or 2-log bacterial count (defined as end point) for synergy index calculation. In case the end point was not achieved, the highest biocide concentration tested was used for synergy index calculation. Wells in Column 11 were used as positive controls; they contained only the media and the test organism. The plates were incubated at 25° C. for aerobic bacteria and 32° C. for anaerobic bacteria. Enumeration was performed 24 hours contact time by employing the MPN method. Numbers of surviving bacteria were determined by removing 20 uL of the cell suspension from each well and adding it into 180 ul of enumeration media (i.e., resazurin TSB plates) then serially dilute in a 96-well block. Plates were incubated for 48 hours or until growth is observed in the control wells.

[3] = test system: Aerobic bacteria: Klebsiella pneumoniae (ATCC 8308), Bacillus subtilis (ATCC 8473), Pseudomonas aeruginosa (ATCC 15442), Staphylococcus aureus (ATCC 6538); experiment: Synergy test in 96 well microtiter plate against aerobic bacteria; conditions: end point, 24 hours; for Aqucar TN-50 (ppm THNM) - QA: THNM alone
Experimental: The synergism of the biocides combination of the present invention was determined using the method described by Kull, F. C, et al. in Applied Microbiology 9:538-541 (1961). […] If end point could not be established, the highest concentration of biocide tested will be used as the end point for the calculation and the SI will be recorded in “less than or <” values. […] The type of microorganisms used for the test inoculums, the matrix to support optimum microbial growth during the test period and the medium used to enumerate the microorganisms after specified contact time are summarized in Table 2. Mineral salts medium (MSM). The medium contains (in mg/l) the following components: FeCl3.6H2O (1); CaCl2.2H2O (10); MgSO4.7H2O (22.5); (NH4)2SO4 (40); KH2PO4 (10); K2HPO4 (25.5); Yeast Extract (10); and glucose (100). After all components are added to deionized water, the pH of the medium is adjusted to 7.5 before use. [table] Synergy tests of THNM alone and in combination with a second biocide against the different test microorganisms were conducted using standard 96 well microtiter plate assays. The test was carried out by adding 500 uL of matrix, 50 μl of tested organism and 50 μl of each biocide into wells of the microtiter plate. The final biocides and test inoculum concentrations in each well were established based on this total volume. For each experiment, the final concentration of the test organisms was in the range of 10^6 to 10^7 cfu/ml. The highest concentration of THNM and second biocide used in this synergy study was 250 and 100 or 50 ppm (depending on the efficacy of the active), respectively. Eight 2-fold dilutions of each biocide were prepared using an automated liquid handling system. The first biocide was added into the well plate horizontally and the second biocide is added after rotating the plate 90 degrees. Columns nine and ten were reserved for each individual biocide to be tested at each concentration level to achieve at least 4-log bacterial kill or 2-log bacterial count (defined as end point) for synergy index calculation. In case the end point was not achieved, the highest biocide concentration tested was used for synergy index calculation. Wells in Column 11 were used as positive controls; they contained only the media and the test organism. The plates were incubated at 25° C. for aerobic bacteria and 32° C. for anaerobic bacteria. Enumeration was performed 24 hours contact time by employing the MPN method. Numbers of surviving bacteria were determined by removing 20 uL of the cell suspension from each well and adding it into 180 ul of enumeration media (i.e., resazurin TSB plates) then serially dilute in a 96-well block. Plates were incubated for 48 hours or until growth is observed in the control wells.

## O=[N+]([O-])C(CO)(CO)CO [THNM, Tris(hydroxymethyl)nitromethane]
[1]; Table 7, 24 hours
  Aqucar TN-50 (ppm THNM) - QA: 250.00 ppm
[1]; Table 8, 24 hours
  Aqucar TN-50 (ppm THNM) - QA: 250.00 ppm
[1]; Table 9, 24 hours
  Aqucar TN-50 (ppm THNM) - QA: 250.00 ppm
[1]; Table 10, 24 hours
  Aqucar TN-50 (ppm THNM) - QA: 250.00 ppm
[2]; Table 11
  Aqucar TN-50 (ppm THNM) - QA: >250 ppm
[2]; Table 12
  Aqucar TN-50 (ppm THNM) - QA: >250 ppm
[2]; Table 13
  Aqucar TN-50 (ppm THNM) - QA: >250 ppm
[2]; Table 14
  Aqucar TN-50 (ppm THNM) - QA: >250 ppm
[3]; Table 3, aerobic bacteria, 25° C.
  Aqucar TN-50 (ppm THNM) - QA: >250 ppm
[3]; Table 4, aerobic bacteria, 25° C.
  Aqucar TN-50 (ppm THNM) - QA: >250 ppm
[3]; Table 5, aerobic bacteria, 25° C.
  Aqucar TN-50 (ppm THNM) - QA: >250 ppm
[3]; Table 6
  Aqucar TN-50 (ppm THNM) - QA: >250 ppm

## Benzalkonium chloride (benzyl-C8-18-alkyldimethyl, chlorides) [BKC]
[1]; BKC alone, 24 hours
  BKC (ppm ADBAC) - QB: 3.13 ppm
[2]; BKC alone
  BKC (ppm ADBAC) - QB: 12.50 ppm
[3]; BKC alone, aerobic bacteria, 25° C.
  Benzalkonium Chloride (ppm BKC) - QB: >50 ppm

## N-alkyl (50% C14, 40% C12, 10% C16) dimethylbenzyl ammonium Chloride [ADBAC]
[1]; ADBAC alone, 24 hours
  Maquat MC1412 (ppm ADBAC) - QB: 6.25 ppm
[2]; ADBAC alone
  Maquat MC1412 (ppm ADBAC) - QB: 12.5 ppm
[3]; ADBAC alone, aerobic bacteria, 25° C.
  Maquat MC1412 (ppm ADBAC) - QB: >50 ppm
